Source: PubChem BioAssay (NCI)
Several values for one entry are separate records, joined by “and”; a condition that tells them apart may be missing. Equal entries are not always repeated.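 Cells were grown in 96-well plates and exposed to each compound for 48 hours at five concentrations; endpoints were interpolated linearly between bracketing concentrations, or set to the highest concentration if not reached. GI50: concentration for 50% inhibition of growth. TGI denotes the concentration required for complete inhibition of growth.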

Tests used:
Experiment in all cases: DTP human tumour cell line panel, 48 h
SF-268 CNS = test system: SF-268 CNS
DU-145 prostate = test system: DU-145 prostate
CAKI-1 renal = test system: CAKI-1 renal
UO-31 renal = test system: UO-31 renal
HS 578T breast = test system: HS 578T breast
HCT-116 colon = test system: HCT-116 colon
EKVX NSCLC = test system: EKVX NSCLC
IGROV1 ovarian = test system: IGROV1 ovarian
PC-3 prostate = test system: PC-3 prostate
SR leukemia = test system: SR leukemia

SMILES	GI50 (SF-268 CNS)	TGI (SF-268 CNS)	GI50 (DU-145 prostate)	TGI (DU-145 prostate)	GI50 (CAKI-1 renal)	TGI (CAKI-1 renal)	GI50 (UO-31 renal)	TGI (UO-31 renal)	GI50 (HS 578T breast)	TGI (HS 578T breast) [µM]	GI50 (HCT-116 colon)	TGI (HCT-116 colon)	GI50 (EKVX NSCLC)	TGI (EKVX NSCLC)	GI50 (IGROV1 ovarian)	TGI (IGROV1 ovarian)	GI50 (PC-3 prostate)	TGI (PC-3 prostate)	GI50 (SR leukemia)	TGI (SR leukemia)
Cc1ccc(/C=C2/SC(Nc3nc(-c4nc(NC5=NC(=O)/C(=C\c6ccc(C)cc6)S5)sc4C)c(C)s3)=NC2=O)cc1	2.51 µM	> 50 µM	0.531 µM	> 9.82 µM	0.484 µM	9.41 µM	6.03 µM	> 50 µM	0.0926 µM	1.14	9.2 µM	20.9 µM	0.0339 µM	0.15 µM	7.29 µM	> 50 µM	0.757 µM	> 50 µM	0.373 µM	> 50 µM
O=C1Nc2ccccc2C1Cc1ccc([N+](=O)[O-])cc1 (centres undefined)	–	> 100 µM	–	> 100 µM	–	> 100 µM	–	> 100 µM	–	> 100	–	> 100 µM	–	> 100 µM	–	> 100 µM	–	> 100 µM	–	> 100 µM
Cc1nc2cnc3cc(F)c(-c4ccc(Oc5ncccn5)cc4Cl)cc3c2n1[C@H]1CCN(C(=O)CO)C[C@@H]1F	6.12 µM	> 100 µM	4.36 µM	> 100 µM	0.558 µM	16.4 µM	1.78 µM	24.4 µM	13.4 µM	77.3	0.255 µM	15.4 µM	3.23 µM	> 95.5 µM	0.936 µM	> 100 µM	28.9 µM	> 100 µM	13.3 µM	54.4 µM
C/C([O-])=C1\Cc2ccccc2C1=O.C/C([O-])=C1\Cc2ccccc2C1=O.CC[O-].CC[O-].[Ti+4]	17.1 µM	47.3 µM	26.4 µM	> 100 µM	36.5 µM	> 100 µM	20.2 µM	70.6 µM	11.7 µM	47.2	17.3 µM	> 61.3 µM	29.6 µM	> 100 µM	8.46 µM	39.5 µM	22 µM	71.7 µM	19.1 µM	> 79.9 µM
Cc1ccc2c(c1C)-c1c(ccc(C)c1C)C(=O)C2=O	–	5.38 µM	–	3.41 µM	–	7.84 µM	–	4.36 µM	–	5.76	–	13.3 µM	–	6.54 µM	–	4.75 µM	–	7.3 µM	–	0.56 µM
C=CC1=C[C@@H]2[C@@H]3O[C@]4(CC[C@H](O4)[C@@H](C)C[C@@H](O)C3=O)C[C@H](O)C3=NCC[C@@]32CC1	< 0.00333 µM	0.00575 µM	< 0.00333 µM	0.00335 µM	< 0.00333 µM	0.00617 µM	< 0.00333 µM	< 0.00333 µM	< 0.00333 µM	< 0.00333	< 0.00333 µM	0.00371 µM	< 0.00333 µM	0.00345 µM	< 0.00333 µM	0.00337 µM	< 0.00333 µM	0.0122 µM	< 0.00333 µM	> 33.3 µM
CC1=CCC(OC(=O)C(C)(C)CCC(O)(C(=O)OC2(C(C)C)CCC3(C)OC3C2)C(C)C)(C(C)C)CC1 (centres undefined)	0.603 µM	1.46 µM	0.23 µM	0.451 µM	0.255 µM	1.05 µM	0.0634 µM	0.164 µM	0.735 µM	3.57	0.113 µM	0.381 µM	0.654 µM	1.41 µM	0.0814 µM	0.272 µM	0.281 µM	0.987 µM	0.266 µM	1.51 µM
COc1ccc(C(=O)COc2cccc(/C=C3\CSc4ccccc4C3=O)c2)cc1	2.47 µM	5.77 µM	2.53 µM	5.4 µM	4.07 µM	12.5 µM	1.69 µM	3.46 µM	0.424 µM	4.91	1.35 µM	2.78 µM	5.3 µM	14.8 µM	1.49 µM	3.35 µM	2.03 µM	5.03 µM	0.395 µM	–
CC(=O)Nc1ccccc1C=C1c2ccccc2-c2ccccc21	–	> 100 µM	–	> 100 µM	–	> 100 µM	–	38.5 µM	–	> 100	–	> 100 µM	–	> 100 µM	–	> 100 µM	–	> 100 µM	–	> 100 µM
COc1ccc2c(c1)c(-c1nc(-c3c[nH]c4ncccc34)cs1)cn2CCCCN1CCOCC1	1.8 µM	3.93 µM	3.07 µM	9.76 µM	1.8 µM	3.79 µM	1.43 µM	3.23 µM	2.05 µM	5.82	1.78 µM	3.37 µM	2.66 µM	9.69 µM	2.48 µM	8.28 µM	1.75 µM	4.26 µM	2.01 µM	4.65 µM
c1cc(CCN2CCCCC2)ccn1	–	> 100 µM	–	> 100 µM	–	> 100 µM	–	> 100 µM	–	> 100	–	> 100 µM	–	> 100 µM	–	> 100 µM	–	> 100 µM	–	> 100 µM
O=C1/C(=C/c2ccccc2F)CNC/C1=C\c1ccccc1F	0.62 µM and 0.309 µM	5.37 µM and 1.21 µM	0.642 µM and 0.71 µM	2.05 µM and 2.01 µM	0.676 µM and 0.611 µM	3.71 µM and 2.16 µM	0.567 µM and 0.753 µM	1.8 µM and 2.05 µM	0.533 µM and 4.11 µM	–	0.224 µM and 0.177 µM	0.549 µM and 0.341 µM	0.775 µM and 1.9 µM	2.58 µM and 5.26 µM	0.809 µM and 1.2 µM	2.49 µM and 3.19 µM	0.295 µM and 0.551 µM	1.07 µM and 3.2 µM	0.0772 µM and 0.245 µM	0.361 µM and 0.813 µM
CC(=O)NCCSC(=O)c1ccccc1	–	2.02 µM	–	2.62 µM	–	0.239 µM	–	–	–	5.52	–	0.275 µM	–	8.24 µM	–	> 29.6 µM	–	4.07 µM	–	0.66 µM
CN1CCN(c2nc(NCCCCNc3ccnc4cc(Cl)ccc34)c3ccccc3n2)CC1	10.7 µM	33.9 µM	7 µM	21.7 µM	–	–	1.65 µM	3.54 µM	5.48 µM	26	2.58 µM	11.7 µM	16.4 µM	40.7 µM	3.49 µM	19 µM	4.44 µM	17.6 µM	2.29 µM	6.27 µM
COC1(O)C(=O)c2ccccc2OC1(OC)c1ccccc1 (centres undefined)	–	> 100 µM	–	> 100 µM	–	> 100 µM	–	–	–	> 100	–	> 100 µM	–	> 100 µM	–	> 100 µM	–	> 100 µM	–	> 100 µM
